# Results reported in US10473645B2, “Methods for identifying a receptor for a ligand and uses thereof” (UNIVERSITE DE GENEVE, priority 2014, dated 2019).
# Key:
# [1] = molecular target: T1, TAAR3 (Mus musculus, UniProt Q5QD16); conditions: Zhang et al, 2013; cited from earlier work
# [2] = molecular target: T2, TAAR4 (Mus musculus, UniProt Q5QD15); conditions: Zhang et al, 2013; cited from earlier work
# T2 construct: from tissue; host or cells: main olfactory epithelium of living mice
# [3] = molecular target: T3, TAAR6 (Mus musculus, UniProt Q5QD13); assay: TAAR transcript level by RT-qPCR after in vivo exposure; conditions: olfactory stimulation during 48 hours
# T3 construct: from tissue; host or cells: main olfactory epithelium of living mice
# Description: (§1) In vivo exposure to odorant: Starting 48 h before experiments, mice were habituated to pure DMSO on a cotton ball. 200 μl were pipetted directly onto the cotton and placed in the cage, replacing any cotton that was already in the cage for nest-making purposes.
# (§2) On the day of the experiment, mice receiving odorants were transferred to a different room, where they were exposed to a cotton ball on which 200 μl of odorant diluted in pure DMSO were deposited. Exposures started in the morning between 8 and 10 am (that is two hours after lights were on) and mice were killed and dissected between 1 and 3 pm. […] If a number of different odorants were tested in the same experiment, a different overpressurized room would always be used for each odorant to avoid odor cross-contamination.
# (§3) After odorant exposure, mice were killed by cervical dislocation and immediately decapitated. The main olfactory epithelia (MOE), were harvested in their entirety and transferred to a tube containing 600 μl of lysis buffer and β-mercaptoethanol (RNAeasy kit, Qiagen, following the manufacturer protocol) and a 0.5 cm diameter steel ball, and then put on ice. Samples were then homogenized using a FastPrep®-24 instrument (MP Biomedicals) at 6 m/s for 30 s and left on ice. […]
# (§4) RNA concentrations were determined using an Amersham Ultrospec® 3100 Pro spectrophotometer, and RNA quality was evaluated with an Agilent Technologies 2100 Bioanalyzer®. […]
# (§5) qPCR Ct values were analyzed using an in-house developed Microsoft Excel® macro file. […] Ct values were converted to quantities relative to the maximum for each given gene. Selected reference genes were then analyzed for variance using the geNorm algorithm. […]
# (§6) Transcript levels of olfactory receptor gene were evaluated following olfactory stimulation during 48 hours by beta-phenylethylamine. Olfactory receptor gene transcript levels were evaluated by RT-qPCR for each receptor gene, and the ratios between the values obtained in exposed versus control mice are shown in FIG. 6. […]
# [4] = molecular target: T2, TAAR4; assay: as above; conditions: olfactory stimulation during 48 hours
# Description: as §1, §2, §3, §4, §5, §6
# [5] = molecular target: T1, TAAR3; assay: as above; conditions: olfactory stimulation during 48 hours
# Description: as §1, §2, §3, §4, §5, §6
# [6] = molecular target: T4, Olfr556 (Mus musculus, UniProt B2RRG2); assay: OR transcript level by RT-qPCR after in vivo odorant exposure; parameters: from tissue; host or cells: main olfactory epithelium of exposed mice; conditions: olfactory stimulation during 48 hours, RT-qPCR
# T4 sequence (B2RRG2 1-324): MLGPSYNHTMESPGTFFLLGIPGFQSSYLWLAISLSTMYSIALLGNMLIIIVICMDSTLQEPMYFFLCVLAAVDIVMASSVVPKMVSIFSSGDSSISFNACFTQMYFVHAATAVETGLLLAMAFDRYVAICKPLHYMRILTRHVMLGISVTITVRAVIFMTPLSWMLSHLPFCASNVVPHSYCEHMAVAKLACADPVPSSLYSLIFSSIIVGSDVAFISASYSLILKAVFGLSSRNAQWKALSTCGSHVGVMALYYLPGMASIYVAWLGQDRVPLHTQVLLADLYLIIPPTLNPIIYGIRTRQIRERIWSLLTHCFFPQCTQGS
# Description: as §1
# as §2, with “Exposures started in the morning between 8 and 10 am (that is two hours after lights were on) and mice were killed and dissected between 1 and 3 pm.” left out
# After odorant exposure, mice were killed by cervical dislocation and immediately decapitated. The main olfactory epithelia (MOE), were harvested in their entirety and transferred to a tube containing 600 μl of lysis buffer and β-mercaptoethanol (RNAeasy kit, Qiagen, following the manufacturer protocol) and a 0.5 cm diameter steel ball, and then put on ice. Samples were then homogenized using a FastPrep®-24 instrument (MP Biomedicals) at 6 m/s for 30 s and left on ice. RNA extraction was performed on all samples in parallel using the Qiagen RNeasy Mini® kit following the manufacturer's instructions. Two DNase treatments were performed on all samples: first using the Qiagen RNase-Free DNase Set® and then using the Life Technologies Ambion DNase I® kit. RNA samples were then aliquoted and stored at −80° C.
# RNA concentrations were determined using an Amersham Ultrospec® 3100 Pro spectrophotometer, and RNA quality was evaluated with an Agilent Technologies 2100 Bioanalyzer®. Each reverse transcription was performed with 0.5 μg RNA using the Takara Primescript® kit, in a final volume of 10 μl. Primers for reverse transcription were equal mixtures of poly-T nucleotides and random hexamers. Negative controls (omitting the reverse transcriptase enzyme) were performed for each sample. 1/14th of the cDNA preparation was used for each triplicated qPCR reaction.
# qPCR Ct values were analyzed using an in-house developed Microsoft Excel® macro file. Triplicate values were compared and outliers (values with a difference higher than 0.5 Ct to their nearest neighbor) were discarded. The number of conditions with an outlying value was always less than 10% of the total number of conditions. Ct values were converted to quantities relative to the maximum for each given gene. Selected reference genes were then analyzed for variance using the geNorm algorithm. All values were normalized with the olfactory tissue-specific genes Omp and Adcy3. β-Actin was used as a non-tissue-specific reference gene to control for differences in dissection between samples. […]
# [7] = molecular target: T5, Olfr167 (Mus musculus, UniProt Q8VGJ5); assay: OR transcripts by qPCR after ex vivo exposure of olfactory epithelia; type: cell-based; conditions: 50 μM, 2 hours, olfactory epithelia in vitro in ACSF medium
# T5 construct: from tissue; host or cells: main olfactory epithelium of C57BL/6 mice (in vivo exposure) or explanted mouse olfactory epithelia (ex vivo)
# T5 sequence (Q8VGJ5 1-312): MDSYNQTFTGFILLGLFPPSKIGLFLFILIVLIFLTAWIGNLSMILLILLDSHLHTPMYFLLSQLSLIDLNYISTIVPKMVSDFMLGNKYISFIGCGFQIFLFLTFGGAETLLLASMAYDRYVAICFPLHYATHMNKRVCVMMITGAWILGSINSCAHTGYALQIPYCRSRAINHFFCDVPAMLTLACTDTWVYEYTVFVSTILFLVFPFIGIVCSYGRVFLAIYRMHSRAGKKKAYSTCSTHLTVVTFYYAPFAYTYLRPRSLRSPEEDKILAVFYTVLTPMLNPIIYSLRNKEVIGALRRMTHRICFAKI
# Description: (§7) In vitro exposure to odorant: The olfactory sensory mucosa of a live or recently dead vertebrate is collected and maintained alive in vitro. Sensory neurons are either left untouched or are dissociated. The exposure to the odorants is then performed in vitro, in a tube, in the liquid phase. The explants/neurons are kept alive in a physiological medium (such as 145 mM NaCl, 5 mM KCl, 1 mM CaCl2, 1 mM MgCl2, 10 mM HEPES, 10 mM glucose). […] The potential modulations of mRNA levels between the two populations are then evaluated, by qPCR (FIG. 2), RNAseq or other techniques, to identify the receptors that have been activated.
# (§8) Mouse olfactory epithelia were collected and kept in vitro in ACSF medium where they were exposed for 2 hours to 50 μM ethyl isobutyrate. The number of transcripts for Olfr genes was then evaluated by qPCR, and those of Olfr167 and Olfr171 were both repressed after agonist exposure. Ethyl isobutyrate was previously shown to be an agonist for Olfr167 and Olfr171.
# [8] = molecular target: T5, Olfr167; conditions: cited from earlier work
# [9] = test system: neurons expressing Olfr145; assay: pS6 immunolabeling with OR in situ hybridization after odorant exposure; type: in vivo, mouse; conditions: 5% odorant, 60 minutes, in vivo
# Description: (§9) In order to independently validate the identity of an acetophenone receptor obtained with the RNAseq approach, the potential colocalization following acetophenone exposure of a neuronal activity marker (the phosphorylated ribosomal protein S6 (pS6) (Knight et al., 2012, Cell, 151, 1126-1137) and specific olfactory receptors were evaluated. To this aim, in-situ hybridizations were performed on sections of olfactory tissue with probes targeting receptor mRNAs followed by immunolabeling of pS6. The probes used were directed against the transcripts of most of the ORs determined as responsive including Olfr983 transcripts (encoding a known acetophenone receptor), Olfr171 transcripts (encoding a known ethyl isobutyrate receptor), and Olfr145 transcripts, encoding a newly identified receptor by RNAseq. Before analysis, mice were exposed to either 5% acetophenone, 5% ethyl isobutyrate, or a negative control condition for 60 minutes. […] 66% (Olfr983) and 70% (Olfr145) of the neurons were positive for pS6 after acetophenone exposure, while only 11% of the neurons expressing Olfr171 were positive for pS6 after exposure to this compound.
# [10] = test system: neurons expressing Olfr983; assay: as above; type: in vivo, mouse; conditions: 5% odorant, 60 minutes, in vivo
# Description: as §9
# [11] = test system: control odorant receptor genes (8 genes); assay: OR transcript level by RT-qPCR after in vivo odorant exposure; parameters: species or system mouse; conditions: 5% odorant for 5 hours; margin of ±20% relative to control mice not significant
# Description: as §1
# (§10) On the day of the experiment, mice receiving odorants were transferred to a different room, where they were exposed to a cotton ball on which 200 μl of odorant diluted in pure DMSO were deposited. Exposures started in the morning between 8 and 10 am (that is two hours after lights were on) and mice were killed and dissected between 1 and 3 pm. […]
# as §4, §5
# (§11) Adult C57BL/6 mice were exposed to 5% ethyl isobutyrate for 5 hours, and the level of transcripts of odorant receptors' genes were measured by RT-qPCR on extracts of olfactory epithelia from these mice, as described in the materials and methods section.
# [12] = test system: Olfr171; assay: as above; parameters: species or system mouse; conditions: 5% odorant for 5 hours, sensory neuroepithelium, n=7 mice
# Description: as §1, §10, §4, §5, §11
# [13] = test system: Olfr171; assay: OR transcripts by qPCR after ex vivo exposure of olfactory epithelia; type: cell-based, Mouse; conditions: 50 μM, 2 hours, olfactory epithelia in vitro in ACSF medium
# Description: as §7, §8
# [14] = test system: Olfr171; conditions: cited from earlier work
# [15] = molecular target: T5, Olfr167; assay: OR transcript level by RT-qPCR after in vivo odorant exposure; conditions: 5% odorant for 5 hours, sensory neuroepithelium, n=7 mice
# Description: as §1, §10, §4, §5, §11
# [16] = test system: Olfr171-expressing neurons; assay: pS6 immunolabeling with OR in situ hybridization after odorant exposure; parameters: species or system mouse; conditions: 5% odorant, 60 minutes, in vivo
# Description: as §9
# [17] = molecular target: T6, Olfr2 (Mus musculus, UniProt Q9QWU6); assay: OR transcript level by RT-qPCR after in vivo odorant exposure; conditions: 5% odorant, 5 hours
# T6 construct: host or cells: HEK cells
# Description: as §1, §2
# (§12) After odorant exposure, mice were killed by cervical dislocation and immediately decapitated. […]
# as §4, §5
# [18] = molecular target: T6, Olfr2; conditions: HEK cells; previously shown; read-out: EC50 as agonist of Olfr2; cited from earlier work
# [19] = molecular target: T7, Olfr16 (Mus musculus, UniProt Q62007); assay: OR transcript level by RT-qPCR after in vivo odorant exposure; parameters: from tissue; host or cells: main olfactory epithelium of exposed mice; conditions: 5% odorant, 5 hours
# Description: as §1, §2, §12, §4, §5
# [20] = molecular target: T7, Olfr16; parameters: host or cells: dissociated neurons; conditions: dissociated neurons; previously shown; read-out: EC50 as agonist of Olfr16; cited from earlier work
# [21] = test system: Olfr609; conditions: HEK cells; previously shown; read-out: EC50 as agonist of Olfr609; cited from earlier work
# [22] = test system: Olfr609; assay: OR transcript level by RT-qPCR after in vivo odorant exposure; parameters: species or system mouse; conditions: 5% odorant, 5 hours
# Description: as §1, §2, §12, §4, §5
# T7 sequence (Q62007 whole entry): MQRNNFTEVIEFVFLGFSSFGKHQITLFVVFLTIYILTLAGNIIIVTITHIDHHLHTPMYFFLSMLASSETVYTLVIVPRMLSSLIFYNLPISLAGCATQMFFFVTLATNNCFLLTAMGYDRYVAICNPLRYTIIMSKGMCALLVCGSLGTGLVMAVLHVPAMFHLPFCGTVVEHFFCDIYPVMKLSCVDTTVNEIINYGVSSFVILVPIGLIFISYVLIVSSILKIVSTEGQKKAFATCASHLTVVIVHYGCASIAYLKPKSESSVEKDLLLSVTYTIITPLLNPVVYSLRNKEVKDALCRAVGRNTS
# T2 sequence (Q5QD15 whole entry): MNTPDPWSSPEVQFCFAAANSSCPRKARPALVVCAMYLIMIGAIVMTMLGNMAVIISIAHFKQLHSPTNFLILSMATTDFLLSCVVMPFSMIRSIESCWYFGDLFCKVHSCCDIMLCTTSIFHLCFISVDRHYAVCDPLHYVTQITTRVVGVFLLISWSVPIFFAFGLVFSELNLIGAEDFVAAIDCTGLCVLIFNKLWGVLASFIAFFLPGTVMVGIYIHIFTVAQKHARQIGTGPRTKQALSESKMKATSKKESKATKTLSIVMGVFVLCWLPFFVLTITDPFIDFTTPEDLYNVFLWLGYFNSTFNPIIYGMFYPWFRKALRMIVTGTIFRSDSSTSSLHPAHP
# T6 sequence (Q9QWU6 1-327): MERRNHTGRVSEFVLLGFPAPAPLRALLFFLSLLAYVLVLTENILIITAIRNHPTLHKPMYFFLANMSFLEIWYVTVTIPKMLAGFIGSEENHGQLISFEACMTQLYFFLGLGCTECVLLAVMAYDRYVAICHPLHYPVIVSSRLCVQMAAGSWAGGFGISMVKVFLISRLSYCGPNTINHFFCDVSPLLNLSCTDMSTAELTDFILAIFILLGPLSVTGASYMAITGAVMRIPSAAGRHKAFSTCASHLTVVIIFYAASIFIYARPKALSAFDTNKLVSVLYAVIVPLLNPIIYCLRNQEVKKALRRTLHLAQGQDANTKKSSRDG
# T1 sequence (Q5QD16 whole entry): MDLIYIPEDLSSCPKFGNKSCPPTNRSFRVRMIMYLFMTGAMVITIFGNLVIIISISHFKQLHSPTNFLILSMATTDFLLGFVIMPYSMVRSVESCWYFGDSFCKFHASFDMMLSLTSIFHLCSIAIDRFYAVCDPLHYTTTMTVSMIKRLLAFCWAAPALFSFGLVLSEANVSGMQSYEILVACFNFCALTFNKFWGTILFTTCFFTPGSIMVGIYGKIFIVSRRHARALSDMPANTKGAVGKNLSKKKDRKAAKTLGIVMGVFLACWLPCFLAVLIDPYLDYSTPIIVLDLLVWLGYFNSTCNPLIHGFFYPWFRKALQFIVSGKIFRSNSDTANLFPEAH
# T3 sequence (Q5QD13 whole entry): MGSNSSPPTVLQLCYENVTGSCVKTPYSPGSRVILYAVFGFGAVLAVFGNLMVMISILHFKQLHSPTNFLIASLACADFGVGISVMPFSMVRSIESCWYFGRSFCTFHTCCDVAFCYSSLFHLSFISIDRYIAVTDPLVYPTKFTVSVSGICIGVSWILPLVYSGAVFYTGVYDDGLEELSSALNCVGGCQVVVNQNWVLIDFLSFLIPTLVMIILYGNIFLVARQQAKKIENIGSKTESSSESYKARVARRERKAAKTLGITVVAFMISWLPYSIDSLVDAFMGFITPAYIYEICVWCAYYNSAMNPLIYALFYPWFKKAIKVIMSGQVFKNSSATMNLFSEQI
compound,measurement,setting,value
NCCc1ccccc1 [beta-phenylethylamine],TAAR3 response previously shown,[1],respond
same,TAAR4 response previously shown,[2],respond
same,TAAR6 transcript level (negative control),[3],not affected
same,number of transcripts encoding TAAR4,[4],decrease
same,number of transcripts encoding TAAR3,[5],decrease
same,Olfr556 transcript level (negative control),[6],not affected
CCOC(=O)C(C)C [ethyl isobutyrate],number of Olfr167 transcripts after agonist exposure,[7],repressed
same,action on Olfr167 previously shown,[8],agonist
same,fraction of Olfr145-expressing neurons positive for pS6,[9],28%
same,fraction of Olfr983-expressing neurons positive for pS6,[10],12%
same,concentration of control odorant receptor gene transcripts,[11],none of the control odorant receptor genes (8 genes) was significantly affected
same,"mRNA concentration of Olfr171, decreased, relative to unexposed controls",[12],74%
same,number of Olfr171 transcripts after agonist exposure,[13],repressed
same,action on Olfr171 previously shown,[14],agonist
same,"mRNA concentration of Olfr167, decreased, relative to unexposed controls",[15],47%
same,fraction of Olfr171-expressing neurons positive for pS6,[16],67%
CCCCCCC=O [heptanal],Olfr2 mRNA level relative to unexposed controls,[17],decrease
same,EC50,[18],< 50 µM
CC(C)(O)CCCC1=CCC(C=O)CC1 (stereo not shown) [lyral],Olfr16 mRNA level relative to unexposed controls,[19],decrease
same,EC50,[20],< 50 µM
COc1cc(C(=O)O)ccc1O [vanillic acid],EC50,[21],< 50 µM
same,Olfr609 mRNA level relative to unexposed controls,[22],decrease
